From US6355799B1, “Substituted benzene compounds, process for their preparation, and herbicidal and defoliant compositions containing them” (ISK Americas Incorporated, priority 1997, dated 2002)

Tests used:
Type in all cases: in vivo
[1] = test system: sicklepod (Cassia obtusifolia, CASOB); experiment: Pre-emerge test, greenhouse herbicide activity screening; settings: pre-emerge, phytotoxicity rating 0-100 at 14 days after application
How it was run: (§1)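 Visual ratings on a 0-100 scale (0 no damage, 100 all plants dead) were taken at 14 days after treatment. Rates of 15-1000 g ai/ha in acetone, 187 l/ha, were sprayed onto soil one day after planting (pre-emerge) or onto 2-3 leaf plants with 0.25% v/v surfactant (post-emerge).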

[2] = test system: lambsquarters (Chenopodium album, CHEAL); experiment: as above; settings: pre-emerge, phytotoxicity rating 0-100 at 14 days after application
How it was run: as §1

[3] = test system: velvetleaf (Abutilon theophrasti, ABUTH); experiment: as above; settings: pre-emerge, phytotoxicity rating 0-100 at 14 days after application
How it was run: as §1

[4] = test system: green foxtail (Setaria viridis, SETVI); experiment: as above; settings: pre-emerge, phytotoxicity rating 0-100 at 14 days after application
How it was run: as §1

[5] = test system: barnyardgrass (Echinochloa crus-galli, ECHCG); experiment: as above; settings: pre-emerge, phytotoxicity rating 0-100 at 14 days after application
How it was run: as §1

[6] = test system: large crabgrass (Digitaria sanguinalis, DIGSA); experiment: as above; settings: pre-emerge, phytotoxicity rating 0-100 at 14 days after application
How it was run: as §1

[7] = test system: ivyleaf morningglory (Ipomoea hederacea, IPOHE); experiment: as above; settings: pre-emerge, phytotoxicity rating 0-100 at 14 days after application
How it was run: as §1

[8] = test system: upland rice (Oryza sp., var. Tebonnet, RICE); experiment: Post-emerge test, crop safety; settings: post-emerge, crop damage rating 0-100 at 14 days after application
How it was run: as §1

[9] = test system: field corn (Zea mays L., var. Dekalb 535, CORN); experiment: Post-emerge test, crop safety; settings: post-emerge, crop damage rating 0-100 at 14 days after application
How it was run: as §1

[10] = test system: sicklepod (Cassia obtusifolia, CASOB); experiment: Post-emerge test, greenhouse herbicide activity screening; settings: post-emerge, phytotoxicity rating 0-100 at 14 days after application
How it was run: (§2)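 Rating: 0–100 visual injury, 14 DAA. Application: acetone, 187 l/ha, 15–1000 g ai/ha, flat-fan track sprayer with nozzle 40–45 cm above soil or canopy. Post-emerge runs used 0.25% v/v surfactant on 2–3 leaf plants.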

[11] = test system: lambsquarters (Chenopodium album, CHEAL); experiment: as above; settings: post-emerge, phytotoxicity rating 0-100 at 14 days after application
How it was run: as §2

[12] = test system: velvetleaf (Abutilon theophrasti, ABUTH); experiment: as above; settings: post-emerge, phytotoxicity rating 0-100 at 14 days after application
How it was run: as §2

[13] = test system: green foxtail (Setaria viridis, SETVI); experiment: as above; settings: post-emerge, phytotoxicity rating 0-100 at 14 days after application
How it was run: as §2

[14] = test system: barnyardgrass (Echinochloa crus-galli, ECHCG); experiment: as above; settings: post-emerge, phytotoxicity rating 0-100 at 14 days after application
How it was run: as §2

[15] = test system: johnsongrass (Sorghum halepense, SORHA); experiment: as above; settings: post-emerge, phytotoxicity rating 0-100 at 14 days after application
How it was run: as §2

[16] = test system: redroot pigweed (Amaranthus retroflexus, AMARE); experiment: as above; settings: post-emerge, phytotoxicity rating 0-100 at 14 days after application
How it was run: as §2

[17] = test system: large crabgrass (Digitaria sanguinalis, DIGSA); experiment: as above; settings: post-emerge, phytotoxicity rating 0-100 at 14 days after application
How it was run: as §2

[18] = test system: ivyleaf morningglory (Ipomoea hederacea, IPOHE); experiment: as above; settings: post-emerge, phytotoxicity rating 0-100 at 14 days after application
How it was run: as §2

[19] = test system: upland rice (Oryza sp., var. Tebonnet, RICE); experiment: Pre-emerge test, crop safety; settings: crop damage, pre-emerge, phytotoxicity rating 0-100 at 14 days after application
How it was run: as §1

[20] = test system: field corn (Zea mays L., var. Dekalb 535, CORN); experiment: Pre-emerge test, crop safety; settings: crop damage, pre-emerge, phytotoxicity rating 0-100 at 14 days after application
How it was run: as §1

[21] = test system: redroot pigweed (Amaranthus retroflexus, AMARE); experiment: Pre-emerge test, greenhouse herbicide activity screening; settings: pre-emerge, phytotoxicity rating 0-100 at 14 days after application
How it was run: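 Compounds in acetone were track-sprayed at 187 l/ha, 15–1000 g ai/ha, onto sandy loam pots. Pre-emerge seeds were sown one day before spraying, with surface watering afterwards. Post-emerge plants were at the 2–3 leaf stage and sprayed with 0.25% v/v non-ionic surfactant. Injury was rated 0–100 at 14 days.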

## COc1cccc(COC(=O)Nc2c(C)c(Cl)cc(F)c2-n2c(=O)cc(C(F)(F)F)n(C)c2=O)c1 [4-65]
[1]; rate 63 g ai/ha
  Pre-emerge Herbicidal Activity CASOB: 80
[1]; rate 250 g ai/ha
  Pre-emerge Herbicidal Activity CASOB: 90
[2]; rate 63 g ai/ha
  Pre-emerge Herbicidal Activity CHEAL: 100
[2]; rate 250 g ai/ha
  Pre-emerge Herbicidal Activity CHEAL: 100
[3]; rate 63 g ai/ha
  Pre-emerge Herbicidal Activity ABUTH: 100
[3]; rate 250 g ai/ha
  Pre-emerge Herbicidal Activity ABUTH: 100
[4]; rate 63 g ai/ha
  Pre-emerge Herbicidal Activity SETVI: 100
[4]; rate 250 g ai/ha
  Pre-emerge Herbicidal Activity SETVI: 100
[5]; rate 63 g ai/ha
  Pre-emerge Herbicidal Activity ECHCG: 80
[5]; rate 250 g ai/ha
  Pre-emerge Herbicidal Activity ECHCG: 90
[6]; rate 63 g ai/ha
  Pre-emerge Herbicidal Activity DIGSA: 100
[6]; rate 250 g ai/ha
  Pre-emerge Herbicidal Activity DIGSA: 100
[7]; rate 63 g ai/ha
  Pre-emerge Herbicidal Activity IPOHE: 90
[7]; rate 250 g ai/ha
  Pre-emerge Herbicidal Activity IPOHE: 100
[8]; 63 g ai/ha
  Post-emerge Herbicidal Activity RICE: 70
[8]; 250 g ai/ha
  Post-emerge Herbicidal Activity RICE: 80
[9]; 63 g ai/ha
  Post-emerge Herbicidal Activity CORN: 80
[9]; 250 g ai/ha
  Post-emerge Herbicidal Activity CORN: 90
[10]; 63 g ai/ha
  Post-emerge Herbicidal Activity CASOB: 100
[10]; 250 g ai/ha
  Post-emerge Herbicidal Activity CASOB: 100
[11]; 63 g ai/ha
  Post-emerge Herbicidal Activity CHEAL: 100
[11]; 250 g ai/ha
  Post-emerge Herbicidal Activity CHEAL: 100
[12]; 63 g ai/ha
  Post-emerge Herbicidal Activity ABUTH: 100
[12]; 250 g ai/ha
  Post-emerge Herbicidal Activity ABUTH: 100
[13]; 63 g ai/ha
  Post-emerge Herbicidal Activity SETVI: 100
[13]; 250 g ai/ha
  Post-emerge Herbicidal Activity SETVI: 100
[14]; 63 g ai/ha
  Post-emerge Herbicidal Activity ECHCG: 60
[14]; 250 g ai/ha
  Post-emerge Herbicidal Activity ECHCG: 70
[15]; 63 g ai/ha
  Post-emerge Herbicidal Activity SORHA: 70
[15]; 250 g ai/ha
  Post-emerge Herbicidal Activity SORHA: 80
[16]; 63 g ai/ha
  Post-emerge Herbicidal Activity AMARE: 100
[16]; 250 g ai/ha
  Post-emerge Herbicidal Activity AMARE: 100
[17]; 63 g ai/ha
  Post-emerge Herbicidal Activity DIGSA: 60
[17]; 250 g ai/ha
  Post-emerge Herbicidal Activity DIGSA: 80
[18]; 63 g ai/ha
  Post-emerge Herbicidal Activity IPOHE: 100
[18]; 250 g ai/ha
  Post-emerge Herbicidal Activity IPOHE: 100
[19]; rate 63 g ai/ha
  Pre-emerge Herbicidal Activity RICE: 65
[19]; rate 250 g ai/ha
  Pre-emerge Herbicidal Activity RICE: 90
[20]; rate 63 g ai/ha
  Pre-emerge Herbicidal Activity CORN: 55
[20]; rate 250 g ai/ha
  Pre-emerge Herbicidal Activity CORN: 75
[21]; rate 63 g ai/ha
  Pre-emerge Herbicidal Activity AMARE: 100
[21]; rate 250 g ai/ha
  Pre-emerge Herbicidal Activity AMARE: 100

## COc1c(Cl)cc(F)c(-n2nc(C)n(C(F)F)c2=O)c1NC(=O)c1ccc(F)cc1F [Compound 6-14]
[1]; rate 63 g ai/ha
  Pre-emerge Herbicidal Activity CASOB: 40
[1]; rate 250 g ai/ha
  Pre-emerge Herbicidal Activity CASOB: 60
[2]; rate 63 g ai/ha
  Pre-emerge Herbicidal Activity CHEAL: 100
[2]; rate 250 g ai/ha
  Pre-emerge Herbicidal Activity CHEAL: 100
[3]; rate 63 g ai/ha
  Pre-emerge Herbicidal Activity ABUTH: 100
[3]; rate 250 g ai/ha
  Pre-emerge Herbicidal Activity ABUTH: 100
[4]; rate 63 g ai/ha
  Pre-emerge Herbicidal Activity SETVI: 100
[4]; rate 250 g ai/ha
  Pre-emerge Herbicidal Activity SETVI: 100
[5]; rate 63 g ai/ha
  Pre-emerge Herbicidal Activity ECHCG: 100
[5]; rate 250 g ai/ha
  Pre-emerge Herbicidal Activity ECHCG: 100
[6]; rate 63 g ai/ha
  Pre-emerge Herbicidal Activity DIGSA: 100
[6]; rate 250 g ai/ha
  Pre-emerge Herbicidal Activity DIGSA: 100
[7]; rate 63 g ai/ha
  Pre-emerge Herbicidal Activity IPOHE: 60
[7]; rate 250 g ai/ha
  Pre-emerge Herbicidal Activity IPOHE: 100
[8]; 63 g ai/ha
  Post-emerge Herbicidal Activity RICE: 60
[8]; 250 g ai/ha
  Post-emerge Herbicidal Activity RICE: 90
[9]; 63 g ai/ha
  Post-emerge Herbicidal Activity CORN: 60
[9]; 250 g ai/ha
  Post-emerge Herbicidal Activity CORN: 100
[10]; 63 g ai/ha
  Post-emerge Herbicidal Activity CASOB: 60
[10]; 250 g ai/ha
  Post-emerge Herbicidal Activity CASOB: 90
[11]; 63 g ai/ha
  Post-emerge Herbicidal Activity CHEAL: 100
[11]; 250 g ai/ha
  Post-emerge Herbicidal Activity CHEAL: 100
[12]; 63 g ai/ha
  Post-emerge Herbicidal Activity ABUTH: 100
[12]; 250 g ai/ha
  Post-emerge Herbicidal Activity ABUTH: 100
[13]; 63 g ai/ha
  Post-emerge Herbicidal Activity SETVI: 90
[13]; 250 g ai/ha
  Post-emerge Herbicidal Activity SETVI: 100
[14]; 63 g ai/ha
  Post-emerge Herbicidal Activity ECHCG: 20
[14]; 250 g ai/ha
  Post-emerge Herbicidal Activity ECHCG: 90
[15]; 63 g ai/ha
  Post-emerge Herbicidal Activity SORHA: 30
[15]; 250 g ai/ha
  Post-emerge Herbicidal Activity SORHA: 90
[16]; 63 g ai/ha
  Post-emerge Herbicidal Activity AMARE: 80
[16]; 250 g ai/ha
  Post-emerge Herbicidal Activity AMARE: 100
[17]; 63 g ai/ha
  Post-emerge Herbicidal Activity DIGSA: 60
[17]; 250 g ai/ha
  Post-emerge Herbicidal Activity DIGSA: 90
[18]; 63 g ai/ha
  Post-emerge Herbicidal Activity IPOHE: 100
[18]; 250 g ai/ha
  Post-emerge Herbicidal Activity IPOHE: 100
[19]; rate 63 g ai/ha
  Pre-emerge Herbicidal Activity RICE: 90
[19]; rate 250 g ai/ha
  Pre-emerge Herbicidal Activity RICE: 100
[20]; rate 63 g ai/ha
  Pre-emerge Herbicidal Activity CORN: 90
[20]; rate 250 g ai/ha
  Pre-emerge Herbicidal Activity CORN: 100
[21]; rate 63 g ai/ha
  Pre-emerge Herbicidal Activity AMARE: 90
[21]; rate 250 g ai/ha
  Pre-emerge Herbicidal Activity AMARE: 100
